Publication PMC3857288, “Characterization of Amylolysin, a Novel Lantibiotic from Bacillus amyloliquefaciens GA1” (PLoS ONE, 2013)
Read-outs that look alike come from different tables or passages of the source.

Experiments:
[1] = assay type: physicochemical; conditions: agar diffusion, M. luteus ATCC 9341
Protocol: To evaluate sensitivity to proteases, purified amylolysin samples were quantified by RP-HPLC after 24h of incubation at 37°C with proteinase K and pronase (10 µg/ml, Sigma-Aldrich). Heat stability was evaluated after incubation for 60 min at various temperatures (25, 55, 65, 75 and 100 °C) whereas pH sensitivity was evaluated after a 1h-incubation in 200 mM HCl/KCl buffer (pH 2-3), acetate buffer (pH 4-6) and Tris buffer (pH 7-9). After those treatments, the remaining amylolysin activity was determined using the agar diffusion assays as described elsewhere, using Micrococcus luteus ATCC 9341 as an indicator strain.

[2] = tested on: L. monocytogenes (three clinical or food isolates); assay: MIC, microdilution (CLSI), summary for three isolates; assay type: cell-based, Listeria monocytogenes; conditions: summary value of the text for the three L. monocytogenes isolates tested; BH medium, 37 °C, 24 h, triplicate
Protocol: (§1) Minimal inhibitory concentration (MIC) was determined for an array of bacterial and yeast strains by a microdilution method following the Clinical and Laboratory Standard Institute (CLSI) recommended procedure. Briefly, the different indicator strains were aerobically grown in 24-wells culture plates in the presence of purified amylolysin at concentration ranging from 0.1 to 2.8 µM in the appropriate medium and temperature conditions as stipulated in table 1. Each well was seeded at an OD600 of 0.1. After 24 h of incubation, cell growth was estimated based on OD600 measurements. The MIC values were defined as the lowest amylolysin concentration that is able to inhibit cell growth. Each experiment was performed in triplicate.

meat proteases = conditions: cited from earlier work
Text: (§2) The majority of the bacteriocins described to date are from lactic bacteria with nisin, used commercially in many countries as preservative in food products, being the best characterized compound. […] In regards to their high level of protease production, Bacillus sp. has been considered as interesting alternative source for antimicrobial peptides with increased protease tolerance. In our laboratory, B. amyloliquefaciens ...

[3] = tested on: His-tag PBP1bγ from E. coli; assay: Inhibition of the transglycosylation (glycosyl transferase) reaction, TLC of [14C] lipid II; assay type: biochemical; conditions: [14C] lipid II 2.5 µM, amylolysin 0.2 µM, PBP1bγ 15 nM, 25 mM Tris-HCl pH 7.5, 0.5 % decyl PEG, 10 mM MgCl2, 12% 1-octanol, 25 % DMSO, 1 hour, 30 °C
Protocol: (§3) Radiolabelled UDP-MurNac-pentapeptide, thereafter [^14C] lipid II, was prepared in vitro using E. coli K12 purified membrane from UDP-GlcNac and UDP-MurNAc-L-Ala-D-Glu-meso-DAP-D-[^14C]Ala-D-[^14C]Ala and subsequently purified as previously described. Inhibition of glycosyl transferase reaction was performed as described elsewhere with some modifications. Briefly, [^14C] lipid II (2.5µM; 0.125µCi nmol^-1), amylolysin (0.2 µM), His-tag PBP1bγ from E. coli (15 nM) were incubated in 25mM Tris-HCl (pH7,5), 0,5 % decyl PEG, 10 mM MgCl2, 12% 1-octanol, 25 % DMSO for 1 hour at 30 °C. The reaction products were separated by thin layer chromatography (TLC) on silica plate (SilG, […], Macherey-Nagel, Duren, Germany) using a mixture of methanol/chloroform/ammoniac/water (88/48/10/1, v/v/v/v) as mobile phase. For interaction experiment, [^14C] lipid II (2.5 µM; 0.125µCinmol^-1) and amylolysin (0.2 µM) were incubated in DMSO/1-octanol mixture (60/40 v/v) for 1 hour at room temperature before being subjected to TCL using a butanol/acetic acid/pyridine/water mixture (15/3/12/10, v/v/v/v) as mobile phase. The radioactive compounds were detected and analyzed with a Molecular Imager FX system (Biorad Laboratories).

[4] = Direct interaction with [14C] lipid II, TLC migration; assay type: binding; conditions: [14C] lipid II 2.5 µM, amylolysin 0.2 µM, DMSO/1-octanol 60/40 v/v, 1 hour, room temperature, Molecular Imager FX
Protocol: as §3

[5] = tested on: Staphylococcus epidermis ATCC 1228; assay: MIC, microdilution (CLSI); assay type: cell-based; conditions: BH medium, 37 °C, 24-well plates, seeded at OD600 0.1, 24 h, amylolysin 0.1-2.8 µM, OD600 read-out, triplicate
Protocol: as §1

[6] = tested on: Streptococcus agalactiae RFB141; assay: MIC, microdilution (CLSI); assay type: cell-based; conditions: clinical isolate; BH medium, 37 °C, 24-well plates, seeded at OD600 0.1, 24 h, amylolysin 0.1-2.8 µM, OD600 read-out, triplicate
Protocol: as §1

[7] = tested on: Enterococcus faecalis ATCC 29212; assay: MIC, microdilution (CLSI); assay type: cell-based; conditions: BH medium, 37 °C, 24-well plates, seeded at OD600 0.1, 24 h, amylolysin 0.1-2.8 µM, OD600 read-out, triplicate
Protocol: as §1

[8] = tested on: Staphylococcus aureus ATCC 43300 (methicillin resistant); assay: MIC, microdilution (CLSI); assay type: cell-based; conditions: methicillin resistant strain; BH medium, 37 °C, 24-well plates, seeded at OD600 0.1, 24 h, amylolysin 0.1-2.8 µM, OD600 read-out, triplicate
Protocol: as §1

[9] = tested on: Staphylococcus aureus ATCC 25923; assay: MIC, microdilution (CLSI); assay type: cell-based; conditions: BH medium, 37 °C, 24-well plates, seeded at OD600 0.1, 24 h, amylolysin 0.1-2.8 µM, OD600 read-out, triplicate
Protocol: as §1

[10] = tested on: Listeria innocua ATCC33090; assay: MIC, microdilution (CLSI); assay type: cell-based; conditions: BH medium, 37 °C, 24-well plates, seeded at OD600 0.1, 24 h, amylolysin 0.1-2.8 µM, OD600 read-out, triplicate
Protocol: as §1

[11] = tested on: Bacillus subtilis ATCC 6633; assay: MIC, microdilution (CLSI); assay type: cell-based; conditions: LB medium, 37 °C, 24-well plates, seeded at OD600 0.1, 24 h, amylolysin 0.1-2.8 µM, OD600 read-out, triplicate
Protocol: as §1

[12] = tested on: Staphylococcus aureus RFB127; assay: MIC, microdilution (CLSI); assay type: cell-based; conditions: lab stock; BH medium, 37 °C, 24-well plates, seeded at OD600 0.1, 24 h, amylolysin 0.1-2.8 µM, OD600 read-out, triplicate
Protocol: as §1

Weissella sp RFB139 = assay: MIC, microdilution (CLSI); assay type: cell-based; conditions: lab stock; MRS medium, 27 °C, 24-well plates, seeded at OD600 0.1, 24 h, amylolysin 0.1-2.8 µM, OD600 read-out, triplicate
Protocol: as §1

[13] = tested on: Micrococcus luteus ATCC 9341; assay: MIC, microdilution (CLSI); assay type: cell-based; conditions: BH medium, 37 °C, 24-well plates, seeded at OD600 0.1, 24 h, amylolysin 0.1-2.8 µM, OD600 read-out, triplicate
Protocol: as §1

[14] = tested on: Listeria monocytogenes LMG 23905; assay: MIC, microdilution (CLSI); assay type: cell-based; conditions: BH medium, 37 °C, 24-well plates, seeded at OD600 0.1, 24 h, amylolysin 0.1-2.8 µM, OD600 read-out, triplicate
Protocol: as §1

[15] = tested on: Enterococcus faecium RFB128; assay: MIC, microdilution (CLSI); assay type: cell-based; conditions: lab stock; BH medium, 37 °C, 24-well plates, seeded at OD600 0.1, 24 h, amylolysin 0.1-2.8 µM, OD600 read-out, triplicate
Protocol: as §1

Listeria innocua RFB159 = assay: MIC, microdilution (CLSI); assay type: cell-based; conditions: clinical isolate; BH medium, 37 °C, 24-well plates, seeded at OD600 0.1, 24 h, amylolysin 0.1-2.8 µM, OD600 read-out, triplicate
Protocol: as §1

[16] = tested on: Bacillus megaterium RFB124; assay: MIC, microdilution (CLSI); assay type: cell-based; conditions: LB medium, 37 °C, 24-well plates, seeded at OD600 0.1, 24 h, amylolysin 0.1-2.8 µM, OD600 read-out, triplicate
Protocol: as §1

[17] = tested on: Listeria monocytogenes LM2234; assay: MIC, microdilution (CLSI); assay type: cell-based; conditions: clinical isolate; BH medium, 37 °C, 24-well plates, seeded at OD600 0.1, 24 h, amylolysin 0.1-2.8 µM, OD600 read-out, triplicate
Protocol: as §1

Bacillus cereus RFB125 = assay: MIC, microdilution (CLSI); assay type: cell-based; conditions: clinical isolate; LB medium, 37 °C, 24-well plates, seeded at OD600 0.1, 24 h, amylolysin 0.1-2.8 µM, OD600 read-out, triplicate
Protocol: as §1

[18] = tested on: Lactobacillus plantarum RFB138; assay: MIC, microdilution (CLSI); assay type: cell-based; conditions: lab stock; MRS medium, 27 °C, 24-well plates, seeded at OD600 0.1, 24 h, amylolysin 0.1-2.8 µM, OD600 read-out, triplicate
Protocol: as §1

Listeria ivanovii RFB160 = assay: MIC, microdilution (CLSI); assay type: cell-based; conditions: BH medium, 37 °C, 24-well plates, seeded at OD600 0.1, 24 h, amylolysin 0.1-2.8 µM, OD600 read-out, triplicate
Protocol: as §1

[19] = tested on: Enterococcus faecalis RFB129; assay: MIC, microdilution (CLSI); assay type: cell-based; conditions: clinical isolate; BH medium, 37 °C, 24-well plates, seeded at OD600 0.1, 24 h, amylolysin 0.1-2.8 µM, OD600 read-out, triplicate
Protocol: as §1

[20] = tested on: Listeria monocytogenes LMG 21263; assay: MIC, microdilution (CLSI); assay type: cell-based; conditions: BH medium, 37 °C, 24-well plates, seeded at OD600 0.1, 24 h, amylolysin 0.1-2.8 µM, OD600 read-out, triplicate
Protocol: as §1

[21] = above pH 6; cited from earlier work
Text: as §2

With amylolysin the “reduction of biological activity” value ([1]; 100 °C for 1 hour) was 7%, the antimicrobial activity reduction ([1]; acidic condition, pH 2, 1 h) was 11% and the antimicrobial activity reduction ([1]; alkaline condition, pH 9, 1 h) was 7%. For the same substance, the MIC [2] was ~0.5 µM, the “sensitivity to meat proteases” value (meat proteases) was “less sensitive to meat proteases than nisin” and the “inhibition of the transglycosylation reaction (lipid II polymerisation)” value [3] was “Inhibition of the transglycosylation reaction”. For the same substance, the “direct amylolysin-lipid II interaction (delay of migration of the complex on TLC)” value [4] was “direct interaction between the two partners”, the MIC [5] was 2.8 µM and the MIC [6] was 2.8 µM. It also gave an MIC [7] of 1.4 µM, an MIC [8] of 0.4 µM and an MIC [9] of 2.8 µM. The MIC [10] was 0.7 µM, the MIC [11] was 1.4 µM and the MIC [12] was 1.4 µM. The MIC (Weissella sp RFB139) was 2.8 µM, the MIC [13] was 0.7 µM and the MIC [14] was 0.4 µM. The MIC [15] was 0.1 µM, the MIC (Listeria innocua RFB159) was 0.7 µM and the MIC [16] was 0.4 µM. The MIC [17] was 0.4 µM, the MIC (Bacillus cereus RFB125) was 0.2 µM and the MIC [18] was >2.8 µM. It also gave an MIC (Listeria ivanovii RFB160) of 0.8 µM, an MIC [19] of 0.7 µM and an MIC [20] of 0.5 µM.
For nisin, the solubility [21] is given as “low solubility above pH 6”.
